Experimental data: article PMC5522071, “Preclinical development of G1T38: A novel, potent and selective inhibitor of cyclin dependent kinases 4/6 for use as an oral antineoplastic in patients with CDK4/6 sensitive tumors” (Oncotarget, 2017)
Read-outs that look alike come from different tables or passages of the source.

What was measured:
[1] = tested on: MMTV-Neu GEMM (Her2/Neu) tumors; assay: Her2Neu breast cancer GEMM; format: in vivo, mice; conditions: 100 mg/kg in diet, after 21 days of treatment
Procedure: After 21 days, tumor progression was calculated using the formula: (21 day volume – initial volume)/ initial volume x 100. […] Yellow bar represents duration of treatment. Statistics were completed using linear regression analysis of time during treatment (28 days). Error bars represent SEM. **p≤0.01.
Female MMTV-NEU mice (Jackson Labs Strain 002376) were used to test the efficacy of G1T38 (100 mpk, medicated diet). Drug was incorporated into diet by Research Diets (New Brunswick, NJ) using the following parameters; 25 gm mouse eating 3.2 gm of food/day. Mice were monitored for tumor development by palpating them weekly as per University of North Carolina at Chapel Hill Lineberger Mouse Phase 1 Unit (MP1U) protocol. At time of treatment, body composition was assessed and weight measurements (in grams) were recorded and used as a measure of gross toxicity. Mice were monitored until euthanized at predetermined humane endpoints per approved University of North Carolina at Chapel Hill IACUC protocols.

[2] = Cellular potency compared with palbociclib; format: cell-based
WM2664 cells = assay: Cell cycle analysis (propidium iodide, flow cytometry); format: cell-based; conditions: for EC50: Homo sapiens, WM 266-4, read-out: EC50 of G1 arrest
Procedure: Next, we assessed the ability of G1T38 to elicit a G1 arrest in normal and tumorigenic CDK4/6-dependent (HS68, WM2664, respectively) and -independent tumorigenic (A2058) cell lines. […] In CDK4/6 independent cells, the compound had no effect on the percentage of S-phase cells (as shown by arrow in Supplementary Figure 1). A dose dependent increase of cells in the G1 phase of the cell cycle was observed when CDK4/6 dependent WM2664 cells were treated with G1T38 for 24 hours (Figure 1C). This arrest was maintained through 300 nM, more than 300x the biochemical IC50. […] The CDK4/6-independent cell line (A2058) was not affected by treatment with G1T38. […]
100, 300 or 1000 nM) for 24 hours. Western blot method human breast cancer. […]
Cell cycle analysis Pharmaceuticals.
final concentration. […] The dose levels
cold methanol (Sigma) and stored at -20°C. […]
Albumin (BSA), Fraction V (Fisher Scientific).

BV173 = assay: Cell proliferation, CellTiter-Glo; format: cell-based; conditions: Homo sapiens, BV-173, 144 h; BV173, Ph1+ leukemia, RB +; four or six days; read-out: G1T38 EC50, growth inhibition
Procedure: (§1) To assess the capacity of G1T38 to inhibit proliferation of tumor cell lines, a broad panel of CDK4/6 dependent and independent lines was evaluated using CellTiter Glo (Table 2).
(§2) SupT1, Daudi, MCF7, ZR-75-1, A2058, WM2664, and H69 cells were seeded at 1000 cells per well; MV-4-11 and BV173 cells were plated at 4000 cells per well; Tom-1 cells were plated at 8,000 cells per well; NALM-1 cells were plated at 20,000 cells per well in Costar 3903 96 well plates. After 24 hours, plates were dosed with G1T38 at a nine-point dose concentration from 10 μM to 1 nM. Cell viability was determined after four or six days using the CellTiter-Glo® assay (Promega; Madison, WI) following manufacturer's recommendations. Plates were processed on BioTek (Winooski, VT) Synergy2 multi-mode plate reader and data analyzed using GraphPad (San Diego, CA) Prism 5 statistical software.

Tom1 = assay: Cell proliferation, CellTiter-Glo; format: cell-based; conditions: 144 h; Tom1, Ph1+ leukemia, RB +; four or six days; read-out: G1T38 EC50, growth inhibition
Procedure: as §1, §2

SupT1 = assay: Cell proliferation, CellTiter-Glo; format: cell-based; conditions: Homo sapiens, SUP-T1, 144 h; SupT1, Lymphoma, RB +; four or six days; read-out: G1T38 EC50, growth inhibition
Procedure: as §1, §2

A2058 = assay: Cell proliferation, CellTiter-Glo; format: cell-based; conditions: Homo sapiens, 144 h; A2058, Melanoma, RB -; four or six days; read-out: G1T38 EC50, growth inhibition
Procedure: as §1, §2

H69 = assay: Cell proliferation, CellTiter-Glo; format: cell-based; conditions: Homo sapiens, NCI-H69, 144 h; H69, SCLC, RB -; four or six days; read-out: G1T38 EC50, growth inhibition
Procedure: as §1, §2

NALM1 = assay: Cell proliferation, CellTiter-Glo; format: cell-based; conditions: 144 h; NALM1, Leukemia, RB -; four or six days; read-out: G1T38 EC50, growth inhibition
Procedure: as §1, §2

MV4-11 = assay: Cell proliferation, CellTiter-Glo; format: cell-based; conditions: Homo sapiens, 144 h; MV4-11, B cell leukemia, RB +; four or six days; read-out: G1T38 EC50, growth inhibition
Procedure: as §1, §2

Daudi = assay: Cell proliferation, CellTiter-Glo; format: cell-based; conditions: Homo sapiens, 144 h, Lymphoma, RB +, four or six days, read-out: G1T38 EC50, growth inhibition
Procedure: as §1, §2

ZR-75-1 = assay: Cell proliferation, CellTiter-Glo; format: cell-based; conditions: Homo sapiens, 144 h; ZR-75-1, ER+ breast cancer, RB +; four or six days; read-out: G1T38 EC50, growth inhibition
Procedure: as §1, §2

MCF7 = assay: Cell proliferation, CellTiter-Glo; format: cell-based; conditions: Homo sapiens, 144 h; MCF7, ER+ breast cancer, RB +; four or six days; read-out: G1T38 EC50, growth inhibition
Procedure: as §1, §2

WM2664 = assay: Cell proliferation, CellTiter-Glo; format: cell-based; conditions: Homo sapiens, WM 266-4, 144 h; WM2664, Melanoma, RB +; four or six days; read-out: G1T38 EC50, growth inhibition
Procedure: as §1, §2

CDK5/p35 = target: T1, CDK5/p35 (Homo sapiens, UniProt Q00535); format: biochemical; conditions: 12-point dose response, singlicate, at Km for ATP
T1 construct: purchased Nanosyn, Inc. (contract assay)
T1 sequence (Q00535 whole entry): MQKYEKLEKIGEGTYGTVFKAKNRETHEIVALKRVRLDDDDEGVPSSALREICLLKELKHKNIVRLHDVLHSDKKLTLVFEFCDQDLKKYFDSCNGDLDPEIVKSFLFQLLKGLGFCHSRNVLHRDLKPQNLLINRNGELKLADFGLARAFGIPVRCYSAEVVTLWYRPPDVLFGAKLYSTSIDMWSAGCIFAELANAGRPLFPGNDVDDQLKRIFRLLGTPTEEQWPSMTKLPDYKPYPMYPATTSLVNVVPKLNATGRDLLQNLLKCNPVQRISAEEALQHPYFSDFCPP
T1 sequence (Q15078 2-307 partner limits assumed): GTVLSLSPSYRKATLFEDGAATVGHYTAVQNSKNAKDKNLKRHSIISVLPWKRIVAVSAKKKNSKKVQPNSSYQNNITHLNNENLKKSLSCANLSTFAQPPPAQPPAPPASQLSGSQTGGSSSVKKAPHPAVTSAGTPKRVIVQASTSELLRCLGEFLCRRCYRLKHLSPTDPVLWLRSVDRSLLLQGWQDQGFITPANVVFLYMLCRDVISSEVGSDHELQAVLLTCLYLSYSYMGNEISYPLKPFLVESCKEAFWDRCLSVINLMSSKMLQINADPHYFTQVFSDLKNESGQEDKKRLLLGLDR

CDK9/Cyclin T = target: T2, CDK9/Cyclin T (Homo sapiens, UniProt P50750); format: biochemical; conditions: 12-point dose response, singlicate, at Km for ATP
T2 construct: purchased Nanosyn, Inc. (contract assay)
T2 sequence (P50750 whole entry): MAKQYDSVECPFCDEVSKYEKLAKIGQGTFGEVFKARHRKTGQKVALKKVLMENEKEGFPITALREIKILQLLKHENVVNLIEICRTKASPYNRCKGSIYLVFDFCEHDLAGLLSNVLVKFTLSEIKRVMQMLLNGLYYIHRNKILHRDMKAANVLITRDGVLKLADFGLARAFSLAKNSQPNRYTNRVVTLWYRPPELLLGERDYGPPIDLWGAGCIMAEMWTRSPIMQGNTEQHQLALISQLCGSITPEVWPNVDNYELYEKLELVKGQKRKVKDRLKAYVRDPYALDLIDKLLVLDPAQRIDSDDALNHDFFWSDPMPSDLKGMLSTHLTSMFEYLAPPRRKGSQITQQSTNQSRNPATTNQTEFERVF
T2 sequence (O60563 whole entry partner): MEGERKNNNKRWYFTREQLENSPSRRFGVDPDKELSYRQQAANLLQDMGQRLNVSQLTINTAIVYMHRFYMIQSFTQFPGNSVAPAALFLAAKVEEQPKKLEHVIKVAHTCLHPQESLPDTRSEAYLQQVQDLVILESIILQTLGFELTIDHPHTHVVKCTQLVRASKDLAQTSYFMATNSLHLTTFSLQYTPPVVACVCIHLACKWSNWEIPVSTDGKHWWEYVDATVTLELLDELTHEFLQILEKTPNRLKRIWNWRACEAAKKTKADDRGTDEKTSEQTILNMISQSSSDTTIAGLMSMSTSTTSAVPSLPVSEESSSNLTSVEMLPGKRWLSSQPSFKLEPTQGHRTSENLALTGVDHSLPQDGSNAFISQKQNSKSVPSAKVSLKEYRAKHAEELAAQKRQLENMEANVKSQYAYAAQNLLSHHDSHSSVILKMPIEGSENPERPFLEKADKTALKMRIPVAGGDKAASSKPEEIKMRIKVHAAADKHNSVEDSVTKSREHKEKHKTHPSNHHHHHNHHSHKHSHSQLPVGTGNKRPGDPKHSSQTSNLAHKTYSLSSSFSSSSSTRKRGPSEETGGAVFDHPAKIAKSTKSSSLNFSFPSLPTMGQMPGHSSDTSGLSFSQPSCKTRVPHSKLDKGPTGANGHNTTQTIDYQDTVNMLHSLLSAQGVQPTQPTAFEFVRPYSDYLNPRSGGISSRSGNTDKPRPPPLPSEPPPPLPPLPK

JAK2 = JAK2 (Homo sapiens, UniProt O60674); assay: JAK2 inhibition; format: biochemical
Sequence of JAK2 (O60674 whole entry, species assumed): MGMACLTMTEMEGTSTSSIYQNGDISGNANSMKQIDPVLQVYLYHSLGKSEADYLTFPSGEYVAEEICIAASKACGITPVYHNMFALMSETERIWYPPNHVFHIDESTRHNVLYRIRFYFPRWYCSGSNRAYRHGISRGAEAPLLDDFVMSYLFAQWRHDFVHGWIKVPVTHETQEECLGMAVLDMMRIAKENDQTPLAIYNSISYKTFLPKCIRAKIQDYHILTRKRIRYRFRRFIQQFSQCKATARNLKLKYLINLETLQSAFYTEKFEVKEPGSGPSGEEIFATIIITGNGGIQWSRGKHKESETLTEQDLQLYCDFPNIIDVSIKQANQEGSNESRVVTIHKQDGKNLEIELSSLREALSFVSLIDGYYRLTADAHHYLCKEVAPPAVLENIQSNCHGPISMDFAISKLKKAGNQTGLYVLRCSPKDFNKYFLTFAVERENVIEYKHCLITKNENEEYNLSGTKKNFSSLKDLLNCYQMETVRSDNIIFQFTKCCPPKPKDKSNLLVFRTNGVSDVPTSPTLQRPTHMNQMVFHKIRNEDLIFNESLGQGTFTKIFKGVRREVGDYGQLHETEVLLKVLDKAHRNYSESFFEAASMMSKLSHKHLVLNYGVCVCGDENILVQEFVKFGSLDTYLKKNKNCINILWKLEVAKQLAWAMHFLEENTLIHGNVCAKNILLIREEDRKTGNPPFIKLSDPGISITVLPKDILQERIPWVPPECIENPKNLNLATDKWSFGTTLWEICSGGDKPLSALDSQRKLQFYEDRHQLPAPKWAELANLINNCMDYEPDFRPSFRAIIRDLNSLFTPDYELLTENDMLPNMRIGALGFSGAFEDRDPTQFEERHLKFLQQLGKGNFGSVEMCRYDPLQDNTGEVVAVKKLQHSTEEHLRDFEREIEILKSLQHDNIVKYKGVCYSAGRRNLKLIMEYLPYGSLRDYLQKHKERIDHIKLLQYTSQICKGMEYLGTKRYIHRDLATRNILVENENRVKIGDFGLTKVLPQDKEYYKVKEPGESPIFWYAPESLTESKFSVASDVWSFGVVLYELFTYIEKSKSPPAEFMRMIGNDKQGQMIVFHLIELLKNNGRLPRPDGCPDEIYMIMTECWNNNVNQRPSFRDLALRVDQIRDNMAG

[3] = tested on: castration resistant prostate cancer (CRPC) models; parameters: method as in Stice JP, Wardell SE, Norris, JD et al., in press; conditions: ref Stice JP, Wardell SE, Norris, JD et al., in press; cited from earlier work

Q: For CC(C)N1CCN(c2ccc(Nc3ncc4cc5n(c4n3)C3(CCCCC3)CNC5=O)nc2)CC1.Cl.Cl [G1T38, 2′-((5-(4-isopropylpiperazin-1-yl)pyridin-2-yl)amino)-7′, 8′dihydro-6′Hspiro[cyclohexane1,9′ pyrazino[1′,2′:1,5]pyrrolo[2,3-d]pyrimidin]-6′-one di-hydrochloride], which tumor regression [1] is on record?
A: 38%

Q: What about the “cellular EC50 lower than palbociclib” value [2] of the same molecule?
A: 2-3 fold

Q: And the “cytotoxicity (sub2N fraction)” value (WM2664 cells; HS68 and WM2664, at the concentrations tested)?
A: not cytotoxic

Q: And the EC50 (WM2664 cells; CDK4/6 dependent cells, 24 hours (Figure 1C))?
A: ~20 nM

Q: And the EC50 (WM2664 cells; WM2664 cells, text of discussion)?
A: 20 nM

Q: What about the EC50 (BV173) of the same molecule?
A: 296 nM

Q: And the EC50 (Tom1)?
A: 232 nM

Q: And the EC50 (SupT1)?
A: 57 nM

Q: What about the EC50 (A2058) of the same molecule?
A: 2690 nM

Q: And the EC50 (H69)?
A: 2920 nM

Q: What about the EC50 (NALM1) of the same molecule?
A: > 10000 nM

Q: And the EC50 (MV4-11)?
A: 23 nM

Q: What about the EC50 (Daudi) of the same molecule?
A: 784 nM

Q: And the EC50 (ZR-75-1)?
A: 61 nM

Q: And the EC50 (MCF7)?
A: 52 nM

Q: What about the EC50 (WM2664) of the same molecule?
A: 125 nM

Q: What about the IC50 (CDK5/p35) of the same molecule?
A: 832 nM

Q: What about the IC50 (CDK9/Cyclin T) of the same molecule?
A: 28 nM

Q: And the IC50 (JAK2)?
A: > 500 nM

Q: What about the “anti-tumor activity compared with docetaxel” value [3] of the same molecule?
A: equivalent anti-tumor activity
